Key:
[1] = Solubility and osmotic pressure of the active compound; assay type: physicochemical
[2] = test system: male and female subjects between the ages of 65 and 84 years, baseline IGF-1 <150 ng/ml; assay: Clinical study, first leg (immediate release dosage forms): IGF-1, IGFBP-3, body composition; assay type: in vivo, human
Experimental: (§1) This clinical study was performed in male and female subjects between the ages of 65 and 84 years inclusive, and whose baseline IGF-1 levels were <150 ng/ml.
(§2) The study was a double blind, parallel group, placebo-controlled study.
In the first leg of the study, the safety and efficacy of 2-amino-N-[2-(3a-(R)-benzyl-2-methyl-3-oxo-2,3,3a,4,6,7-hexahydro-pyrazolo[4,3-c]pyridin-5-yl)-1-(R)-benzyloxymethyl-2-oxo-ethyl]-isobutyramide L-tartrate was studied in 4 groups of approximately 24 subjects at doses of 0 mg (placebo), 1 mg tid, 3 mg tid and 3 mg am and 6 mg pm. (All dosage forms in this part of the study were immediate release dosage forms.)
(§3) Return visits were scheduled at 1, 2, and 4 weeks after baseline. A blood sample for 2-amino-N-[2-(3a-(R)-benzyl-2-methyl-3-oxo-2,3,3a,4,6,7-hexahydro-pyrazolo[4,3-c]pyridin-5-yl)-1-(R)-benzyloxymethyl-2-oxo-ethyl]-isobutyramide L-tartrate and IGF-1 levels was obtained at each visit. The baseline and all subsequent follow-up visits were performed at the same time of day (between approximately 8-11 am).
(§4) A follow-up evaluation was made at 1, 2, and 4 weeks. Vital signs were obtained and the skin of the face, trunk and upper extremities was inspected. A blood sample was obtained for measurement of GH and IGF-1, and for measurement of plasma concentrations of 2-amino-N-[2-(3a-(R)-benzyl-2-methyl-3-oxo-2,3,3a,4,6,7-hexahydro-pyrazolo[4,3-c]pyridin-5-yl)-1-(R)-benzyloxymethyl-2-oxo-ethyl]-isobutyramide L-tartrate.
(§5) The primary efficacy endpoint was the percentage change from baseline in IGF-1. Secondary outcomes included insulin-like growth factor binding protein 3 (IGIFBP-3), cholesterol subfractions, and percent changes in total adipose and total lean tissue. Changes in each of the secondary efficacy measures over time were examined systematically either graphically or in tabular form and summarized using appropriate descriptive statistics as is well known in the art.

[3] = test system: male and female subjects between the ages of 65 and 84 years, baseline IGF-1 <150 ng/ml; assay: Clinical study, extension study (CR, CR+IR, daily or every third day): IGF-I, GH peaks, body composition; assay type: in vivo, human
Experimental: as §1, §2
In addition, an extension study was conducted to evaluate the relationship between peak GH concentrations or IGF-I versus surrogate responses such as lipid concentrations and body composition. A controlled release (CR) formulation was also evaluated, either alone or combined with an immediate release (IR) formulation (24-30 patients per group). [16mg (10 CR, 6 IR) h.s.( h.s. means at bedtime); 16 mg (10 CR, 6 IR) h.s. every third day; 16 mg CR h.s.; and placebo.] The formulations are set forth below.
In the extension study, 2-amino-N-[2-(3a-(R)-benzyl-2-methyl-3-oxo-2,3,3a,4,6,7-hexahydro-pyrazolo[4,3-c]pyridin-5-yl)-1-(R)-benzyloxymethyl-2-oxo-ethyl]-isobutyramide L-tartrate was supplied as 10 mg or 3 mg controlled release tablets and 3 mg immediate release tablets, with matching placebo tablets. Study active compound was supplied in blisterpaks, with five tablets to be taken at time of each dosing. Subjects were instructed to take the tablets with one glass of water at bedtime.
as §3
In addition to this schedule, subjects at selected sites in the extension study were studied during two overnight admissions on the first night of dosing and again on day 28 of dosing. Growth hormone secretion and pharmacokinetic sampling was carried out.
as §4
In addition, subjects at selected study centers were admitted to an overnight unit on day 28 of dosing. Growth hormone secretion profile, pharmacokinetics, and vital sign determination were carried out.
as §5

[4] = two groups receiving IR formulation

SMILES: CN1N=C2CCN(C(=O)[C@@H](COCc3ccccc3)NC(=O)C(C)(C)N)C[C@@]2(Cc2ccccc2)C1=O.O=C(O)C(O)C(O)C(=O)O [2-amino-N-[2-(3a-(R)-benzyl-2-methyl-3-oxo-2,3,3a,4,6,7-hexahydro-pyrazolo[4,3-c]pyridin-5-yl)-1-(R)-benzyloxymethyl-2-oxo-ethyl]-isobutyramide L-tartrate]
- osmotic pressure [1]: about 4 atmospheres
- pH dependence of solubility ([1]; this GHSEC is a base): generally higher at acidic pH
- solubility ([1]; water): > 150 mg/mL
- IGF-1 dose relation ([2]; 0 mg, 1 mg tid, 3 mg tid, 3 mg am and 6 mg pm): dose related increase
- increase in IGF-1 ([2]; both groups administered 9 mg daily (3 mg tid; 3 mg am and 6 mg pm), immediate release): approximately 35%
- IGFBP3 ([2]; first leg): increased
- changes in body composition ([2]; first leg, small changes): decreased adipose tissue and increased apparent whole body lean mass
- attenuation of GH peaks ([3]; Q 3 day group compared with daily group): less attenuation
- average GH peaks ([3]; group receiving CR alone, after 4 weeks): < 2 ng/mL
- average GH peaks ([3]; group receiving CR alone, at baseline (first night of dosing)): less than 4 ng/ml
- average GH peaks ([3]; groups receiving 6 mg IR (with 10 mg CR), at baseline): ≥ 15 ng/mL
- average GH peaks ([3]; groups receiving 6 mg IR (with 10 mg CR), by 4 weeks): 4 to 6 ng/mL
- GH peak height, Q 3 day group greater than QD group ([3]; on average): 1.52 ng/mL
- average rise of IGF-I ([3]; remaining group, apparently 16 mg (10 CR, 6 IR) h.s. every third day): approximately 10%
- IGF-I ([3]; the 2 groups dosed daily (16 mg CR h.s., 16 mg (10 CR, 6 IR) h.s.)): increases
- adipose tissue [3, 4]: corresponding reductions
- increases in lean tissue [3, 4]: 0.5-0.6%

Reference: patent publication US20020094992A1, “Intermittent administration of a growth hormone secretagogue” (priority 2000, published 2002)
